≈ marks a conversion by molar mass, not a printed value.
How the values were obtained:
Assay type in all cases: cell-based
[1] = system: Actinomyces viscosum DSM 43329; assay: MIC determination in microtiter plates, Actinomyces viscosum; details: DSM43329, 48 h, read-out: MIC [ppm] Actinomyces viscosum DSM 43329
Procedure: (§1) Determination of the Minimum Inhibitory Concentration (MIC Value) in Microtiter Plates
(§2) Casein/soybean flour peptone bouillon for the preparation of pre-cultures of the test bacteria and yeast.
(§3) Mycological slant agar for the pre-culture of moulds
(§4) The test substances are pre-dissolved in dimethyl sulfoxide (DMSO) and tested in a dilution series of 1:2.
(§5) Bacteria and yeast are cultured overnight in CASO bouillon, the mould is cultured overnight on mycological slant agar, and washed off with 10 ml of 0.85% sodium chloride solution (+0.1% TritonX-100).
(§6) All the test organisms are adjusted to an organism count of 1−5×10^6 CFU/ml using 0.85% sodium chloride solution.
(§7) The test substances are pre-pipetted into microtiter plates in an amount of 8 μl per well.
(§8) Pre-diluted organism suspensions are diluted 1:100 in CASO bouillon (bacteria and yeast) or Sabouraud 2% glucose bouillon (mould) and are added in an amount of 192 μl per well to the test substances.
(§9) The test batches are incubated for 48 hours at 37° C. (bacteria and yeast) or for 5 days at 28° C. (mould).
(§10) After incubation, the growth is evaluated by reference to the turbidity of the test batches (optical density) at 620 nm in a microplate reader.
(§11) One microtiter plate is used for each test organism and substance concentration. All the substances are tested in duplicate.

[2] = system: Candida albicans ATCC 10231 (= CA); assay: MIC determination in microtiter plates, Candida albicans; details: ATCC10231, 48 h, read-out: MIC [ppm] Candida albicans ATC 10231
How it was run: (§12)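 Test substances in DMSO, 1:2 dilution series; organisms adjusted to 1−5×10^6 CFU/ml, then diluted 1:100 in CASO bouillon (bacteria) or Sabouraud 2% glucose bouillon (mould). Bacteria incubated 48 h at 37° C., mould 5 days at 28° C.; growth read as turbidity at 620 nm, in duplicate.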

[3] = system: Escherichia coli NCTC 8196 (= EC); assay: MIC determination in microtiter plates, Escherichia coli; details: NCTC8196, Table 2c, 48 hours at 37° C., read-out: MIC [ppm] Escherichia coli NCTC 8196
How it was run: as §12

[4] = system: Staphylococcus hominis DMS 20328 (= SH); assay: MIC determination in microtiter plates, Staphylococcus hominis; details: DSM20328, 48 h, read-out: MIC [ppm] Staphylococcus hominis DSM 20328
How it was run: as §12

[5] = system: Epidermophyton floccosum DSM 10709; assay: MIC determination in microtiter plates, Epidermophyton floccosum; details: DSM10709, 120 h, read-out: MIC [ppm] Epidermophyton floccosum DSM 10709
Procedure: as §1, §2, §3, §4, §5, §6, §7, §8, §9, §10, §11

[6] = system: Selenomonas artemidis ATCC 43528; assay: MIC determination in microtiter plates, Selenomonas artemidis; details: Centipeda artemidis, ATCC43528; Table 2c; 48 hours at 37° C.; read-out: MIC [ppm] Selenomonas artemidis ATCC 43528
Procedure: as §1, §2, §3, §4, §5, §6, §7, §8, §9, §10, §11

[7] = system: Porphyromonas gingivalis DSM 20709; assay: MIC determination in microtiter plates, Porphyromonas gingivalis; details: DSM20709, 48 h, read-out: MIC [ppm] Porphyromonas gingivalis DSM 20709
Procedure: as §1, §2, §3, §4, §5, §6, §7, §8, §9, §10, §11

[8] = system: Corynebacterium xerosis ATCC 373; assay: MIC determination in microtiter plates, Corynebacterium xerosis; details: ATCC373, 48 h, read-out: MIC [ppm] Corynebacterium xerosis ATCC 373
Procedure: as §1, §2, §3, §4, §5, §6, §7, §8, §9, §10, §11

[9] = system: Streptococcus mutans ATCC 25175; assay: MIC determination in microtiter plates, Streptococcus mutans; details: ATCC25175, 48 h, read-out: MIC [ppm] Streptococcus mutans ATCC 25175
Procedure: as §1, §2, §3, §4, §5, §6, §7, §8, §9, §10, §11

[10] = system: Propionibacterium acnes ATCC11829; assay: MIC determination in microtiter plates, Propionibacterium acnes; details: Cutibacterium acnes, ATCC11829, 48 h, read-out: MIC [ppm] Propionibacterium acnes ATCC11829
Procedure: as §1, §2, §3, §4, §5, §6, §7, §8, §9, §10, §11

[11] = system: Enterococcus hirae ATCC 10541; assay: MIC determination in microtiter plates, Enterococcus hirae; details: ATCC10541, 48 h, read-out: MIC [ppm] Enterococcus hirae ATCC 10541
Procedure: as §1, §2, §3, §4, §5, §6, §7, §8, §9, §10, §11

[12] = system: Staphylococcus aureus ATCC 9144; assay: MIC determination in microtiter plates, Staphylococcus aureus; details: ATCC9144, 48 h, read-out: MIC [ppm] Staphylococcus aureus ATCC 9144
Procedure: as §1, §2, §3, §4, §5, §6, §7, §8, §9, §10, §11

[13] = system: Staphylococcus epidermidis ATCC 12228; assay: MIC determination in microtiter plates, Staphylococcus epidermidis; details: ATCC12228, 48 h, read-out: MIC [ppm] Staphylococcus epidermidis ATCC 12228
Procedure: as §1, §2, §3, §4, §5, §6, §7, §8, §9, §10, §11

[14] = system: Trichophyton rubrum DSM 4167; assay: MIC determination in microtiter plates, Trichophyton rubrum; details: DSM4167, 120 h, read-out: MIC [ppm] Trichophyton rubrum DSM 4167
Procedure: as §1, §2, §3, §4, §5, §6, §7, §8, §9, §10, §11

[15] = system: Trichophyton mentagrophytes ATCC 9533; assay: MIC determination in microtiter plates, Trichophyton mentagrophytes; details: ATCC9533, 120 h, Table 2c, 5 days at 28° C., read-out: MIC [ppm] Trichophyton mentagrophytes ATCC 9533
Procedure: as §1, §2, §3, §4, §5, §6, §7, §8, §9, §10, §11

[16] = system: Streptococcus sobrinus DSM 20742; assay: MIC determination in microtiter plates, Streptococcus sobrinus; details: DSM20742, 48 h, read-out: MIC [ppm] Streptococcus sobrinus DSM 20742
Procedure: as §1, §2, §3, §4, §5, §6, §7, §8, §9, §10, §11

SMILES: CCCCCCOc1ccc(CCN)cc1OCCCCCC [Compound 102, 1-Amino-2-(3,4-dihexyloxyphenyl)ethane]
- MIC [1]: 13 µg/mL (≈ 40.4 µM)
- MIC [2]: 4 µg/mL (≈ 12.4 µM)
- MIC [3]: 4 µg/mL (≈ 12.4 µM)
- MIC [4]: 4 µg/mL (≈ 12.4 µM)
- MIC [5]: 6 µg/mL (≈ 18.7 µM)
- MIC [6]: 25 µg/mL (≈ 77.8 µM)
- MIC [7]: 2 µg/mL (≈ 6.22 µM)
- MIC [8]: 6 µg/mL (≈ 18.7 µM)
- MIC [9]: 3 µg/mL (≈ 9.33 µM)
- MIC [10]: 13 µg/mL (≈ 40.4 µM)
- MIC [11]: 13 µg/mL (≈ 40.4 µM)
- MIC [12]: 13 µg/mL (≈ 40.4 µM)
- MIC [13]: 6 µg/mL (≈ 18.7 µM)
- MIC [14]: 25 µg/mL (≈ 77.8 µM)
- MIC [15]: 25 µg/mL (≈ 77.8 µM)
- MIC [16]: 6 µg/mL (≈ 18.7 µM)

Reference: patent US6846492B2, “Use of phenylethylamine derivatives for the antimicrobial treatment of surfaces” (Ciba Specialty Chemicals Corporation, priority 2000, dated 2005)
